Source: the NIST ThermoML archive (doi:10.1021/acs.jced.5b00197)

Assay: refractive index (other wavelength) (dimensionless); xn = mol fraction of the nth substance listed
Settings: 94.64 kPa, Liquid, Standard Abbe refractometry

CC(=O)O [acetic acid] + O
refractive index
Settings	Wavelength=404.7 nm	Wavelength=435.8 nm	Wavelength=486.1 nm	Wavelength=546.1 nm	Wavelength=587.6 nm	Wavelength=632.8 nm	Wavelength=644 nm	Wavelength=706.5 nm
293.15 K, x1 = 0.0322	1.35074	1.34808	1.34498	1.34229	1.34084	1.3395	1.33919	1.33766
293.15 K, x1 = 0.0697	1.35808	1.35532	1.35218	1.3494	1.34797	1.34664	1.34631	1.34473
293.15 K, x1 = 0.114	1.36535	1.36252	1.35924	1.35643	1.35495	1.35355	1.35322	1.35158
293.15 K, x1 = 0.167	1.37162	1.36869	1.36533	1.36247	1.36095	1.35953	1.35919	1.35756
293.15 K, x1 = 0.231	1.37678	1.3738	1.37034	1.36744	1.36589	1.36444	1.36411	1.36247
293.15 K, x1 = 0.31	1.38181	1.37874	1.37522	1.37227	1.37068	1.36921	1.36888	1.36724
293.15 K, x1 = 0.412	1.38536	1.38226	1.37869	1.37571	1.37412	1.37264	1.3723	1.37065
293.15 K, x1 = 0.545	1.38847	1.3853	1.38169	1.37868	1.37709	1.37561	1.37526	1.37359
293.15 K, x1 = 0.629	1.38867	1.3855	1.38192	1.37889	1.3773	1.37583	1.37548	1.37381
293.15 K, x1 = 0.729	1.38865	1.38547	1.38189	1.37886	1.37727	1.37581	1.37547	1.37382
293.15 K, x1 = 0.85	1.38695	1.38381	1.38021	1.37723	1.37565	1.37419	1.37386	1.37224
293.15 K, x1 = 1	1.38345	1.38034	1.37681	1.37386	1.3723	1.37087	1.37055	1.36896
298.15 K, x1 = 0.0322	1.34997	1.34733	1.34424	1.34156	1.34012	1.33879	1.33848	1.33695
298.15 K, x1 = 0.0697	1.35708	1.35435	1.35121	1.34845	1.347	1.34567	1.34535	1.34377
298.15 K, x1 = 0.114	1.36413	1.36131	1.35805	1.35525	1.35378	1.35239	1.35206	1.35044
298.15 K, x1 = 0.167	1.37026	1.36733	1.36401	1.36114	1.35963	1.35823	1.3579	1.35625
298.15 K, x1 = 0.231	1.37523	1.37226	1.36885	1.36595	1.36441	1.36298	1.36265	1.36102
298.15 K, x1 = 0.31	1.38012	1.37707	1.37358	1.37063	1.36906	1.36762	1.36728	1.36564
298.15 K, x1 = 0.412	1.38357	1.38048	1.37695	1.37398	1.37239	1.37092	1.37059	1.36894
298.15 K, x1 = 0.545	1.38656	1.38342	1.37983	1.37683	1.37525	1.37378	1.37344	1.37178
298.15 K, x1 = 0.629	1.38681	1.38367	1.38008	1.37709	1.37551	1.37404	1.3737	1.37205
298.15 K, x1 = 0.729	1.38668	1.38352	1.37994	1.37695	1.37536	1.3739	1.37357	1.37193
298.15 K, x1 = 0.85	1.38488	1.38174	1.37819	1.37522	1.37365	1.37221	1.37188	1.37027
298.15 K, x1 = 1	1.38126	1.37816	1.37466	1.37174	1.37018	1.36876	1.36844	1.36686
303.15 K, x1 = 0.0322	1.34916	1.34654	1.34343	1.34077	1.33932	1.338	1.3377	1.3362
303.15 K, x1 = 0.0697	1.35605	1.35332	1.35017	1.34743	1.34598	1.34464	1.34432	1.34275
303.15 K, x1 = 0.114	1.36289	1.36008	1.35684	1.35405	1.35256	1.35117	1.35085	1.34926
303.15 K, x1 = 0.167	1.36886	1.36596	1.36261	1.35979	1.35827	1.35686	1.35653	1.35492
303.15 K, x1 = 0.231	1.37369	1.37074	1.36734	1.36446	1.36293	1.36151	1.36118	1.35956
303.15 K, x1 = 0.31	1.37842	1.37539	1.37192	1.36899	1.36742	1.36598	1.36565	1.36402
303.15 K, x1 = 0.412	1.38176	1.37869	1.37516	1.37223	1.37064	1.36917	1.36884	1.36722
303.15 K, x1 = 0.545	1.38463	1.3815	1.37794	1.37497	1.37337	1.3719	1.37157	1.36995
303.15 K, x1 = 0.629	1.38481	1.38167	1.37813	1.37513	1.37355	1.3721	1.37176	1.37013
303.15 K, x1 = 0.729	1.38467	1.38153	1.37797	1.375	1.37341	1.37196	1.37163	1.37002
303.15 K, x1 = 0.85	1.38283	1.37972	1.37618	1.37323	1.37166	1.37023	1.3699	1.36831
303.15 K, x1 = 1	1.37917	1.37611	1.37261	1.36968	1.36815	1.36675	1.36643	1.36485
